Reference: patent publication US10350272B2, “Calcitonin analogues for treating diseases and disorders” (KeyBioscience AG, priority 2015, dated 2019)
Where no end group is shown, it is not given here.

Columns and labels:
[1] = test system: liver sections from HFD-fed rats; assay: Oil-Red-O staining of frozen liver sections; assay type: in vivo, rat
Protocol: At termination of the study of Example 2 the rat livers were embedded using snap freezing in OCT, and then sectioned using a cryomicrotome. Sections were prepared from four groups, KBP-042 in HFD rats, KBP-089 in HFD rats, control HFD rats, and a lean rat comparison.
The sections were stained using Oil-Red-O staining. […] The lipid accumulation in pair-fed KBP-089 liver exceeded KBP-089 treated rats with 66.5% (p<0.001) and was not significant different from vehicle (0.6711). Statistical test performed was one-way ANOVA with Dunnet's post test for multiple comparisons. **p<0.01, ***p<0.001.

[2] = test system: rats; settings: s.c., single dose 1000 mU/rat or 0.5-50 mU/rat over 12 weeks, dose dependently; cited from earlier work
[3] = test system: cultured rat hepatocytes; settings: cited from earlier work
[4] = amylin dosage 100 μg kg^−1, compared with saline; cited from earlier work

AcCSNLSTCMLGRLSQDLHRLQTYPKTDVGANAP-NH2 (Ac-CSNLSTCMLGRLSQDLHRLQTYPKTDVGANAP-NH2; ends and bridges not checked) [KBP-089]
excess of lipid accumulation in pair-fed KBP-089 liver over KBP-089 treated rats (Oil-Red-O) ([1]; 2.5 μg/kg, p<0.001): 66.5% | decrease of HFD-induced lipid accumulation in liver compared to vehicle (Oil-Red-O) ([1]; HFD rats, 2.5 μg/kg daily): 155.3%

salmon calcitonin [synthetic salmon calcitonin]
serum cholesterol levels [2]: reduced | serum lipoprotein levels [2]: reduced | serum triglyceride levels [2]: reduced | incorporation of acetate into cholesterol and triglycerides [3]: reduced

amylin (KCNTATCATQRLANFLVRSSNNLGPVLPPTNVGSNTY; ends and bridges not checked; cysteine pairing not given here; UniProt P12969 38-74, looked up) [amylin administered alone in Kusakabe et al (2011), reference compound]
tissue triglyceride content [4]: neither L nor A decreased

B1: leptin (protein, UniProt P50596 22-167, looked up)
Leptin: VPIHKVQDDTKTLIKTIVTRINDISHTQSVSARQRVTGLDFIPGLHPILSLSKMDQTLAVYQQILTSLPSQNVLQIAHDLENLRDLLHLLAFSKSCSLPQTRGLQKPESLDGVLEASLYSTEVVALSRLQGSLQDILQQLDLSPEC
notes: leptin administered alone in Kusakabe et al (2011)
tissue triglyceride content [4]: neither L nor A decreased
